These molecules were tested against T1, ligand binding domain of human RORγ (A262-S507) (Homo sapiens, UniProt P51449) (assay: General RORγ SPA binding assay (competition with [3H]25-hydroxycholesterol)). Settings: RORγ SPA binding assay, inhibition of [3H]25-hydroxycholesterol binding; read-out: IC50.
T1 construct: made in house; host or cells: E. coli
T1 sequence (P51449 262-507): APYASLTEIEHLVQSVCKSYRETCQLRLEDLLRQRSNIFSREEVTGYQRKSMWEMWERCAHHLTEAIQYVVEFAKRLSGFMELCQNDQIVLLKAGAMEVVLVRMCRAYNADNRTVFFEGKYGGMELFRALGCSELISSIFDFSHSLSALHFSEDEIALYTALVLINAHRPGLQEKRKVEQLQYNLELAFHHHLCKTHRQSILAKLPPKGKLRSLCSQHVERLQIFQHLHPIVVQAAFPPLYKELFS
Outline: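 Step one: compound meets 50 nM nickel-purified, His-tagged protein from E. coli for 15 min at room temperature (PBS, 0.5% fatty acid free BSA). Step two: radioligand is added for another 15 min. Step three: SPA beads are added for 30 min before scintillation reading and IC50 fitting.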

Row | SMILES | IC50
1 | CCNC(=O)NCC(O)(COc1cccc(C(F)(F)F)n1)c1cnc(C)nc1C1CCN(C(=O)Nc2c(F)cccc2F)CC1 (centres unmarked) [Compound N36, N-(2,6-Difluorophenyl)-4-{5-[2-{[(ethylamino)carbonyl]amino}-1-hydroxy-1-({[6-(trifluoromethyl)pyridin-2-yl]oxy}methyl)ethyl]-2-methylpyrimidin-4-yl}piperidine-1-carboxamide] | 47.8 nM
2 | CC(=O)NCC(O)(COc1cccc(C(F)(F)F)n1)c1cnc(C)nc1C1CCN(C(=O)Nc2c(F)cccc2F)CC1 (centres unmarked) [Compound N37, 4-{5-[2-(Acetylamino)-1-hydroxy-1-({[6-(trifluoromethyl)pyridin-2-yl]oxy}methyl)ethyl]-2-methylpyrimidin-4-yl}-N-(2,6-difluorophenyl)piperidine-1-carboxamide] | 36.9 nM
3 | CC(=O)NCCNCC(O)(COc1cccc(C(F)(F)F)n1)c1cnc(C)nc1C1CCN(C(=O)Nc2c(F)cccc2F)CC1 (centres unmarked) [Compound N38, 4-{5-[2-{[2-(Acetylamino)ethyl]amino}-1-hydroxy-1-({[6-(trifluoromethyl)pyridin-2-yl]oxy}methyl)ethyl]-2-methylpyrimidin-4-yl}-N-(2,6-difluorophenyl)piperidine-1-carboxamide] | 57.9 nM
4 | CC(=O)N1CCN(CC(O)(COc2cccc(C(F)(F)F)n2)c2cnc(C)nc2C2CCN(C(=O)Nc3c(F)cccc3F)CC2)CC1 (centres unmarked) [Compound N39, 4-{5-[2-(4-Acetylpiperazin-1-yl)-1-hydroxy-1-({[6-(trifluoromethyl)pyridin-2-yl]oxy}methyl)ethyl]-2-methylpyrimidin-4-yl}-N-(2,6-difluorophenyl)piperidine-1-carboxamide] | 84.1 nM
5 | CC(=O)N1CCC(NCC(O)(COc2cccc(C(F)(F)F)n2)c2cnc(C)nc2C2CCN(C(=O)Nc3c(F)cccc3F)CC2)C1 (centres unmarked) [Compound N40, 4-(5-{2-[(1-Acetylpyrrolidin-3-yl)amino]-1-hydroxy-1-({[6-(trifluoromethyl)pyridin-2-yl]oxy}methyl)ethyl}-2-methylpyrimidin-4-yl)-N-(2,6-difluorophenyl)piperidine-1-carboxamide] | 134 nM
6 | CC(=O)NCCC(=O)NCC(O)(COc1cccc(C(F)(F)F)n1)c1cnc(C)nc1C1CCN(C(=O)Nc2c(F)cccc2F)CC1 (stereo not drawn) [Compound N41, 4-(5-{2-[(N-Acetyl-beta-alanyl)amino]-1-hydroxy-1-({[6-(trifluoromethyl)pyridin-2-yl]oxy}methyl)ethyl}-2-methylpyrimidin-4-yl)-N-(2,6-difluorophenyl)piperidine-1-carboxamide] | 150 nM
7 | Cc1ncc(C(O)(CNC(=O)CCO)COc2cccc(C(F)(F)F)n2)c(C2CCN(C(=O)Nc3c(F)cccc3F)CC2)n1 (centres unmarked) [Compound N42, N-(2,6-Difluorophenyl)-4-(5-{1-hydroxy-2-[(3-hydroxypropanoyl)amino]-1-({[6-(trifluoromethyl)pyridin-2-yl]oxy}methyl)ethyl}-2-methylpyrimidin-4-yl)piperidine-1-carboxamide] | 183 nM
8 | CC(=O)NCC(O)(COc1cccc(C(F)(F)F)n1)c1cnc(C)nc1C1CCN(C(=O)Oc2ccccc2F)CC1 (centres unmarked) [Compound N43, 2-Fluorophenyl 4-{5-[2-(acetylamino)-1-hydroxy-1-({[6-(trifluoromethyl)pyridin-2-yl]oxy}methyl)ethyl]-2-methylpyrimidin-4-yl}piperidine-1-carboxylate] | 9.2 nM
9 | Cc1ncc(C(O)(COc2cccc(C(F)(F)F)n2)C(=O)O)c(C2CCN(C(=O)Nc3c(F)cccc3F)CC2)n1 (centres unmarked) [Compound N44, 2-[4-(1-{[(2,6-Difluorophenyl)amino]carbonyl}piperidin-4-yl)-2-methylpyrimidin-5-yl]-2-hydroxy-3-{[6-(trifluoromethyl)pyridin-2-yl]oxy}propanoic acid] | 899 nM
10 | CNC(=O)C(O)(COc1cccc(C(F)(F)F)n1)c1cnc(C)nc1C1CCN(C(=O)Nc2c(F)cccc2F)CC1 (centres unmarked) [Compound N45, N-(2,6-Difluorophenyl)-4-{5-[1-hydroxy-2-(methylamino)-2-oxo-1-({[6-(trifluoromethyl)pyridin-2-yl]oxy}methyl)ethyl]-2-methylpyrimidin-4-yl}piperidine-1-carboxamide] | 81.9 nM
11 | CC(=O)NCC(O)(COc1cccc(C(F)(F)F)n1)c1cnc(C)nc1C1CCN(C(=O)Oc2ccc(F)cc2)CC1 (centres unmarked) [Compound N46, 4-Fluorophenyl 4-{5-[2-(acetylamino)-1-hydroxy-1-({[6-(trifluoromethyl)pyridin-2-yl]oxy}methyl)ethyl]-2-methylpyrimidin-4-yl}piperidine-1-carboxylate] | 39 nM
12 | CC(=O)NCC(O)(COc1cccc(C(F)(F)F)n1)c1cnc(C)nc1C1CCN(C(=O)Oc2c(F)cccc2F)CC1 (centres unmarked) [Compound N47, 2,6-Difluorophenyl 4-{5-[2-(acetylamino)-1-hydroxy-1-({[6-(trifluoromethyl)pyridin-2-yl]oxy}methyl)ethyl]-2-methylpyrimidin-4-yl}piperidine-1-carboxylate] | 3.6 nM
13 | Cc1ncc(C(N)(C#N)COc2cccc(C(F)(F)F)n2)c(C2CCN(C(=O)Nc3c(F)cccc3F)CC2)n1 (centres unmarked) [Compound N48, 4-[5-(1-Amino-1-cyano-2-{[6-(trifluoromethyl)pyridin-2-yl]oxy}ethyl)-2-methylpyrimidin-4-yl]-N-(2,6-difluorophenyl)piperidine-1-carboxamide] | 5.6 nM
14 | Cc1ncc(C(N)(COc2cccc(C(F)(F)F)n2)C(N)=O)c(C2CCN(C(=O)Nc3c(F)cccc3F)CC2)n1 (centres unmarked) [Compound N49, 4-{5-[1,2-Diamino-2-oxo-1-({[6-(trifluoromethyl)pyridin-2-yl]oxy}methyl)ethyl]-2-methylpyrimidin-4-yl}-N-(2,6-difluorophenyl)piperidine-1-carboxamide] | 176 nM
15 | Cc1ncc(C2(C)CN(c3ccnc(C(F)(F)F)n3)C(=O)O2)c(C2CCN(C(=O)Cc3c(F)cccc3F)CC2)n1 (centres unmarked) [Compound N50, 5-(4-{1-[(2,6-Difluorophenyl)acetyl]piperidin-4-yl}-2-methylpyrimidin-5-yl)-5-methyl-3-[2-(trifluoromethyl)pyrimidin-4-yl]-1,3-oxazolidin-2-one] | 290 nM
16 | Cc1ncc(C2(COc3cccc(C(F)(F)F)n3)CCO2)c(C2CCN(C(=O)Nc3c(F)cccc3F)CC2)n1 (centres unmarked) [Compound N51, N-(2,6-Difluorophenyl)-4-{2-methyl-5-[2-({[6-(trifluoromethyl)pyridin-2-yl]oxy}methyl)oxetan-2-yl]pyrimidin-4-yl}piperidine-1-carboxamide] | 4.9 nM
17 | Cc1ncc(C2(COc3cccc(C(F)(F)F)n3)CNC(=O)O2)c(C2CCN(C(=O)Nc3c(F)cccc3F)CC2)n1 (centres unmarked) [Compound N52, N-(2,6-Difluorophenyl)-4-{2-methyl-5-[2-oxo-5-({[6-(trifluoromethyl)pyridin-2-yl]oxy}methyl)-1,3-oxazolidin-5-yl]pyrimidin-4-yl}piperidine-1-carboxamide] | 13.8 nM

— US10035790B2, “RORγ modulators” (BRISTOL-MYERS SQUIBB COMPANY, priority 2012, dated 2018)
